From article PMC3924858 (Journal of medicinal chemistry, 2013)

Biological target: human mGlu5 receptor (Homo sapiens, UniProt P41594)
Sequence (P41594 21-1180 isoform P41594-2 limits assumed): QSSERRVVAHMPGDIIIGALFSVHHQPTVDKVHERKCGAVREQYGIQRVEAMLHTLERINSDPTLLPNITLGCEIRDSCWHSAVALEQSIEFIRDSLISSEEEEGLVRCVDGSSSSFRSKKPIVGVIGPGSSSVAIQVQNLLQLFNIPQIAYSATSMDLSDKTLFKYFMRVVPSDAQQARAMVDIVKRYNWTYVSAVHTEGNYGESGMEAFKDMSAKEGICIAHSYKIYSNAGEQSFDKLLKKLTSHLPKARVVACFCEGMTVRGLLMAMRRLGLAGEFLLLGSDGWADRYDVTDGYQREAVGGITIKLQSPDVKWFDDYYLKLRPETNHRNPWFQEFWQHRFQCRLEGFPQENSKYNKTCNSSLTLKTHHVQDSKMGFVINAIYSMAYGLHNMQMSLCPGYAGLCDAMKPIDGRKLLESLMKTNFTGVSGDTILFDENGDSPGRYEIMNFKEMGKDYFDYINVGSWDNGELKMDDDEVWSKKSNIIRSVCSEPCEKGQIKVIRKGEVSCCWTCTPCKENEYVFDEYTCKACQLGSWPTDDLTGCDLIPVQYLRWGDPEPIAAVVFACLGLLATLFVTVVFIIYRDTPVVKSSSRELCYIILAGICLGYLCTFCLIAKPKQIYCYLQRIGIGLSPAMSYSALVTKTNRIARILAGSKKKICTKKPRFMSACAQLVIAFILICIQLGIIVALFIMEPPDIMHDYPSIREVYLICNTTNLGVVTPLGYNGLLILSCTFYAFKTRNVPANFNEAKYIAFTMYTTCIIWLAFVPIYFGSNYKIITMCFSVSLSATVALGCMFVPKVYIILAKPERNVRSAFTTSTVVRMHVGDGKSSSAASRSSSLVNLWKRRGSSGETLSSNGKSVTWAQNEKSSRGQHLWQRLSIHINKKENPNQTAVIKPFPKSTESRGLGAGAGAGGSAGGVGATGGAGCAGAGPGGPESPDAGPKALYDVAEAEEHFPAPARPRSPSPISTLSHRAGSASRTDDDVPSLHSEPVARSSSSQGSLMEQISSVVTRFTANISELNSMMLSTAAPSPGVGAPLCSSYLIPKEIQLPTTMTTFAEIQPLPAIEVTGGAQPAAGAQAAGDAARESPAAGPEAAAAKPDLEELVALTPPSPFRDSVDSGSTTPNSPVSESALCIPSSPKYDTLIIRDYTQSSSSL

O=C1c2sc(COc3ccccc3)nc2CCN1c1ccc(F)cn1 [16p, 5-(5-Fluoro-pyridin-2-yl)-2-phenoxymethyl-6,7-dihydro-5H-thiazolo[5,4-c]pyridin-4-one]
Glu Max: 94 (89-99) %
